What all share (assay type): cell-based, human
Assay [1] relates to CLL patient cells co-cultured with wild-type bone marrow derived stroma cells. The experiment in a line: 1-hour PKC inhibitor pre-treatment with washout before cytotoxic agent; viability of CLL/stroma co-cultures by Annexin-V-FITC and DAPI flow cytometry. Here is the method: (§1) Approximately 20,000 wild-type bone marrow derived stroma cells were seeded into tissue culture wells and subsequently co-cultured with approximately 200,000 CLL patient cells. 24 hours thereafter, co-cultures were treated with 5 μM Enzastaurin for 1 hour at the indicated time-points prior to treatment with Fludarabine or Venetoclax (FIGS. 1A and 2A). Equivalent PKC-β-inhibitor exposure was maintained through removal and subsequent washout of Enzastaurin-treated co-cultures. Co-cultures were centrifuged at 500 g for 5 minutes, prior to removal of Enzastaurin containing media. Washout with cell culture media, was followed by an additional centrifugation at 500 g for 5 minutes, and the replacement of washout media with fresh media. Respective co-cultures were subsequently treated with either Fludarabine (2.5 μM) or Venetoclax (2.5 nM) for 24 hours. Cells were subsequently evaluated for viability using Annexin-V-FITC and DAPI, or 4′,6-diamidino-2-phenylindole, staining on a flow cytometer (FIGS. 1B and 2B).
as §1, with “Bendamustine (FIG. 7).” for “Fludarabine or Venetoclax (FIGS. 1A and 2A).”, “Bendamustine (15” for “either Fludarabine (2.5”, “μM)” for “μM) or Venetoclax (2.5 nM)”, “cytometer.” for “cytometer (FIGS. 1B and 2B).”
Approximately 20,000 wild-type bone marrow derived stroma cells were seeded into tissue culture wells and subsequently co-cultured with approximately 200,000 CLL patient cells. 24 hours thereafter, co-cultures were treated with 5 μM Ruboxistaurin for 1 hour at the indicated time-points prior to treatment with Venetoclax (FIG. 10A). Equivalent PKC-β-inhibitor exposure was maintained through removal and subsequent washout of Ruboxistaurin-treated co-cultures. Co-cultures were centrifuged at 500 g for 5 minutes, prior to removal of Ruboxistaurin containing media. Washout with cell culture media, was followed by an additional centrifugation at 500 g for 5 minutes, and the replacement of washout media with fresh media. Respective co-cultures were subsequently treated with Venetoclax (5 nM) for 24 hours. Cells were subsequently evaluated for viability using Annexin-V-FITC and DAPI, or 4′,6-diamidino-2-phenylindole, staining on a flow cytometer (FIG. 10B).
On the technique in general: A flow cytometer gives signals particle by particle.

The test system is the same in assay [2]. Kind of assay: Synergism of PKC-β inhibitors with Venetoclax in CLL/stroma co-culture (Compusyn, Bliss Independence model). The conditions noted are these: PKC inhibitor 1.25, 2.5, 5 μM prior to Venetoclax 5, 10, 20 nM for 24 hours. Here is the method:
Heatmaps reflect assessment values noted for respective compound combinations, with error (*) indicated below. A scale of 50 to −50, is applied to values, with 50 representing maximal synergism and −50 being maximal antagonism. Non-significant values are by default coloured as neither synergistic nor antagonistic;
Approximately 20,000 wild-type bone marrow derived stroma cells were seeded into tissue culture wells and subsequently co-cultured with approximately 200,000 CLL patient cells. 24 hours thereafter, co-cultures were treated with Enzastaurin, Sotrastaurin or Midostaurin (1.25 μM, 2.5 μM, 5 μM) prior to treatment with Venetoclax. Co-cultures were subsequently treated with Venetoclax (5 nM, 10 nM, 20 nM) for 24 hours. Cells were subsequently evaluated for viability using flow cytometric analysis. Synergism was calculated using Compusyn Software (CRUK), within the Bliss Independence model (FIG. 5).

Assay [3] shares this test system. Kind of assay: Continuous PKC inhibitor exposure begun before cytotoxic agent; viability of CLL/stroma co-cultures by Annexin-V-FITC and DAPI flow cytometry. Here is the method:
Approximately 20,000 wild-type bone marrow derived stroma cells were seeded into tissue culture wells and subsequently co-cultured with approximately 200,000 CLL patient cells. 24 hours thereafter, co-cultures were treated with 5 μM Enzastaurin at the indicated time-points prior to treatment with Venetoclax (FIG. 3A). Co-cultures were subsequently treated with Venetoclax (2.5 nM) for 24 hours. Cells were subsequently evaluated for viability using Annexin-V-FITC and DAPI staining on a flow cytometer (FIG. 3B).
Approximately 20,000 wild-type bone marrow derived stroma cells were seeded into tissue culture wells and subsequently co-cultured with approximately 200,000 CLL patient cells. 24 hours thereafter, co-cultures were treated with 5 μM Enzastaurin at the indicated time-points prior to treatment with Bendamustine (FIG. 8). Co-cultures were subsequently treated with Bendamustine (15 μM) for 24 hours. Cells were subsequently evaluated for viability using Annexin-V-FITC and DAPI staining on a flow cytometer (FIG. 8).
Approximately 20,000 wild-type bone marrow derived stroma cells were seeded into tissue culture wells and subsequently co-cultured with approximately 200,000 CLL patient cells. 24 hours thereafter, co-cultures were treated with 1 μM Midostaurin at the indicated time-points prior to treatment with Bendamustine (FIG. 8). Co-cultures were subsequently treated with Bendamustine (15 μM) for 24 hours. Cells were subsequently evaluated for viability using Annexin-V-FITC and DAPI staining on a flow cytometer (FIG. 9).

Setting [4] is: 5 μM Ruboxistaurin for 1 hour, then Venetoclax 5 nM for 24 hours.
Setting [5] is: 5 μM Enzastaurin for 1 hour, then Bendamustine 15 μM for 24 hours.
Where [6] appears, read: 5 μM Enzastaurin for 1 hour, then Fludarabine 2.5 μM for 24 hours.
The mark [7] stands for this setting: 5 μM Enzastaurin for 1 hour, then Venetoclax 2.5 nM for 24 hours.

Here are results for four molecules from US20230330080A1, “THERAPEUTIC TREATMENT USING PROTEIN KINASE C (PKC) INHIBITORS AND CYTOTOXIC AGENTS” (Cambridge Enterprise Limited, priority 2020, published 2023).

SMILES strings stand for the structures.

Consider `CN(C)C[C@@H]1CCn2cc(c3ccccc32)C2=C(C(=O)NC2=O)c2cn(c3ccccc23)CCO1` [Ruboxistaurin], for which, in assay [1] (setting [4]), the “pre-dosing time points showing increased efficacy of Venetoclax” value fell in the range of 1 to 6 h and the “pre-dosing time points with most significant effects on efficacy of Venetoclax” value is 1 to 4 h.
Turning to `CN1CCN(c2nc(C3=C(c4c[nH]c5ccccc45)C(O)=NC3=O)c3ccccc3n2)CC1` [Sotrastaurin, 5-hydroxy-4-(1H-indol-3-yl)-3-[2-(4-methylpiperazin-1-yl)quinazolin-4-yl]-2H-pyrrol-2-one], the “combinatorial treatment effect with Venetoclax (synergism, Bliss model)” value in assay [2] was “synergistic effects”.
Turning to `Cn1cc(C2=C(c3cn(C4CCN(Cc5ccccn5)CC4)c4ccccc34)C(=O)NC2=O)c2ccccc21` [Enzastaurin, 3-(1-methylindol-3-yl)-4-[1-[1-(pyridin-2-ylmethyl)piperidin-4-yl]indol-3-yl]pyrrole-2,5-dione], the “pre-dosing time giving greatest efficacy of Bendamustine” value in assay [3] (continuous 5 μM Enzastaurin beginning 1, 2, 3, 4, 6, 8 hours prior to Bendamustine 15 μM for 24 hours) lay in the range of 3 to 6 h. Besides, the “pre-dosing time giving greatest efficacy of Venetoclax” value in assay [3] (continuous 5 μM Enzastaurin beginning 1, 2, 3, 4, 6, 12 hours prior to Venetoclax 2.5 nM for 24 hours) fell in the range of 3 to 6 h. Further, in assay [1] (setting [5]), the “pre-dosing timepoints showing increased efficacy of Bendamustine” value is 2 to 6 h and the “pre-dosing timepoints with largest effect on efficacy of Bendamustine” value was 3 to 6 h. In assay [1] (setting [6]), the “pre-dosing time points showing increased efficacy of Fludarabine” value lay within 2 to 6 h and the “pre-dosing time points with largest effect on efficacy of Fludarabine” value is 3 to 6 h. In assay [1] (setting [7]), the “pre-dosing time points showing increased efficacy of Venetoclax” value was in the range of 2 to 6 h and the “pre-dosing time points with largest effect on efficacy of Venetoclax” value lay in the range of 3 to 6 h. Moreover, the “combinatorial treatment effect with Venetoclax (synergism, Bliss model)” value in assay [2] is “synergistic effects”.
In the case of `CO[C@@H]1[C@H](N(C)C(=O)c2ccccc2)C[C@H]2O[C@]1(C)n1c3ccccc3c3c4c(c5c6ccccc6n2c5c31)C(=O)NC4` [Midostaurin, N-((5R,7R,8R,9S)-8-methoxy-9-methyl-16-oxo-6,7,8,9,15,16-hexahydro-5H,14H-17-oxa-4b,9a,15-triaza-5,9-methanodibenzo[b,h]cyclonona[jkl]cyclopenta[e]-as-indacen-7-yl)-N-methylbenzamide], the “pre-dosing time giving greatest efficacy of Bendamustine” value in assay [3] (continuous 1 μM Midostaurin beginning 1, 2, 3, 4, 6, 8 hours prior to Bendamustine 15 μM for 24 hours) was in the range of 3 to 8 h.
